{"source": "patent US20210207099A1", "about": "“METHODS AND COMPOSITIONS FOR GENERATING CELLS OF ENDODERMAL LINEAGE AND BETA CELLS AND USES THEREOF” (priority 2018, published 2021)", "key": {"plated stage 4 cells": {"tested_on": "plated stage 4 cells", "assay": "qRT-PCR and immunostaining of plated stage 4 cells treated with cytoskeletal modifying compounds", "format": "cell-based, human", "description": "For experiments investigating the effects of plating pancreatic progenitors, cells were differentiated with the suspension protocol for stages 1-3. At the end of stage 3, clusters were single cell dispersed with TrypLE and plated onto tissue culture plates coated with various ECM proteins at 0.625×10^6 cells/cm^2. Differentiation media for the remainder of this hybrid protocol were the same as for the suspension protocol with the exception that Y-27632 and Activin A were omitted on days 2-5 of stage 4. Additional compounds were added as indicated in each experiment: 1 μM latrunculin A (Cayman Chemical, 10010630), 1 μM latrunculin B (Cayman Chemical, 10010631), 1 μM cytochalasin D (MilliporeSigma, C2618), 1 μM jasplakinolide (Cayman Chemical, 11705), 10 μM blebbistatin (MilliporeSigma, 203389), 1 μM nocodazole (Cayman Chemical, 13857), 1 μM Y-15 (Cayman Chemical, 14485), 10 μM Y-27632, and 10 μM GDC-0994 (Selleckchem, S7554). A variety of ECM coatings were initially tested with this plating methodology, including collagen I (Corning, 354249), collagen IV (Corning, 354245), fibronectin (Gibco, 33016-015), vitronectin (Gibco, A14700), matrigel (Corning, 356230), gelatin (Fisher, G7-500), and laminins 111, 121, 211, 221, 411, 421, 511, and 521 (Biolamina, LNKT-0201). All subsequent experiments with this hybrid protocol were performed on collagen I.\nBrightfield images were taken with a Leica DMi1 inverted light microscope, and fluorescence images were captured with a Nikon A1Rsi confocal microscope. For immunostaining, cells were fixed with 4% paraformaldehyde (PFA) at room temperature for 30 minutes. They were then blocked and permeabilized for 45 minutes at room temperature with an immunocytochemistry (ICC) solution consisting of 0.1% triton X (Acros Organics, 327371000) and 5% donkey serum (Jackson Immunoresearch, 017000-121) in PBS (Corning, 21-040-CV). Samples were then incubated with primary antibodies diluted in ICC solution overnight at 4° C., washed with ICC, incubated with secondary antibodies diluted in ICC for 2 hours at room temperature, and stained with DAPI for 15 minutes at room temperature. For histological sectioning, whole SC-β cell clusters generated with the planar protocol and mouse kidneys containing transplanted cells were fixed overnight with 4% PFA at 4° C. The in vitro clusters were also embedded in Histogel (Thermo Scientific, hg-4000-012). These samples were then paraffin-embedded and sectioned by the Division of Comparative Medicine (DCM) Research Animal Diagnostic Laboratory Core at Washington University in St. Louis. Paraffin was removed from sectioned samples with Histoclear (Thermo Scientific, C78-2-G), and antigen retrieval was carried out in a pressure cooker (Proteogenix, 2100 Retriever) with 0.05 M EDTA (Ambion, AM9261). Slides were blocked and permeabilized with ICC solution for 45 minutes, incubated with primary antibodies in ICC solution overnight at 4° C., and incubated with secondary antibodies for 2 hours at room temperature. Slides were then sealed with DAPI Fluoromount-G (SouthernBiotech, 0100-20).\nRNA was extracted from either whole clusters or cells directly on the plate with the RNeasy Mini Kit (Qiagen, 74016). Samples were treated with a DNAse kit (Qiagen, 79254) during extraction. The High Capacity cDNA Reverse Transcriptase Kit (Applied Biosystems, 4368814) was used to synthesize cDNA on a thermocycler (Applied Biosystems, A37028). The PowerUp SYBR Green Master Mix (Applied Biosystems, A25741) was used on a StepOnePlus (Applied Biosystems), and real time PCR results were analyzed using a ΔΔCt methodology. TBP and GUSB were both used as housekeeping genes. Primer sequences were as follows."}, "[1]": {"tested_on": "HUES8 cells differentiated with the planar protocol", "assay": "Latrunculin A in the completely planar SC-β cell differentiation protocol", "format": "cell-based, human", "quoted_text": "Planar protocol: 24 hours after passaging, cells seeded onto 6 or 24-well plates at 0.313-0.521×10^6 cells/cm^2 were differentiated with a new 6 stage protocol using the following formulations, with media changes every day. Stage 1 (4 days): BE1 media+100 ng/mL Activin A+3 μM CHIR99021 for the first 24 hours, followed with 3 days of BE1 containing 100 ng/mL Activin A only. Stage 2 (2 days): BE2 media+50 ng/mL KGF. Stage 3 (2 days): BE3+50 ng/mL KGF, 200 nM LDN193189, 500 nM TPPB (Tocris, 53431), 2 μM retinoic acid, and 0.25 μM SANT1. Stage 4 (4 days): BE3+50 ng/mL KGF, 200 nM LDN193189, 500 nM TPPB, 0.1 μM retinoic acid, and 0.25 μM SANT1. Stage 5 (7 days): S5 media+10 μM ALK5i II+20 ng/mL Betacellulin+0.1 μM retinoic acid+0.25 μM SANT1+1 μM T3+1 μM XXI. 1 μM Latrunculin A was added to this media for the first 24 hours only. Stage 6 (7-25 days): Cultures were kept on the plate with ESFM for the first 7 days. To move to suspension culture, cells could be single cell dispersed with TrypLE and placed in 6 mL ESFM within a 6-well plate at a concentration of 4-5 million cells/well on an orbital shaker at 100 RPM. Assessments were performed 5-8 days after cluster aggregation.\nCells were single-cell dispersed with TrypLE and fixed with 4% PFA for 30 minutes. Cells were then washed with PBS and incubated with ICC solution for 45 minutes at room temperature, incubated with primary antibodies overnight at 4° C., and incubated with secondary antibodies for 2 hours at room temperature. […]"}}}
{"compound": "C/C1=C/C(=O)O[C@@H]2C[C@@H](CC[C@H](C)/C=C\\C=C\\CC1)O[C@@](O)([C@@H]1CSC(=O)N1)C2", "note": "[latrunculin A]", "values": [{"measurement": "NEUROG3+ and NKX6-1+ cells by immunostaining", "setting": "plated stage 4 cells; 1 μM, plated cells at the end of stage 4", "result": "increases NEUROG3+ and decreases NKX6-1+ cells"}, {"measurement": "dose response of NEUROG3 expression", "setting": "plated stage 4 cells; added during stage 4, qRT-PCR", "result": "highly dose-dependent"}, {"measurement": "expression of NEUROG3 and downstream targets NKX2.2 and NEUROD1", "setting": "plated stage 4 cells; compound screen, plated stage 4 cells, qRT-PCR", "result": "greatly increased expression of NEUROG3"}, {"measurement": "NKX6-1 expression", "setting": "plated stage 4 cells; latrunculin treatment during stage 4", "result": "followed the reverse trend as NEUROG3"}, {"measurement": "endocrine induction, SC-β cell specification and off-target lineages", "setting": "[1]; 1 μM for the first 24 hours of stage 5", "result": "greatly increased endocrine induction and SC-β cell specification while decreasing off-target lineages"}, {"measurement": "NKX6-1 expression", "setting": "[1]; added during stage 4 (0.5 μM)", "result": "decreasing NKX6-1 expression"}, {"measurement": "premature expression of NEUROG3 and its downstream targets", "setting": "[1]; added during stage 4 (0.5 μM)", "result": "dramatically increased premature expression of NEUROG3"}]}
